Like-named read-outs stand apart in the source and are kept apart here.
Test system: GRMD plasma proteins
Format: in vivo, dog
[1] = EDG-5506 treatment to GRMD baseline, Decreased in GRMD

O=c1ccc(-c2cnc(OCC(F)(F)F)nc2)nn1Cc1cncc(F)c1 [EDG-5506]
Change from GRMD Baseline (fraction) (3-hydroxy-3-methylglutaryl-coenzyme A reductase (HMGCR), EDG-5506 treatment to GRMD baseline): 0.149 fraction
Change from GRMD Baseline (fraction) (3-hydroxy-3-methylglutaryl-coenzyme A reductase (HMGCR), Post-Treatment to GRMD baseline): -0.0053 fraction
Change from GRMD Baseline (fraction) (Annexin A5 (ANXA5), EDG-5506 treatment to GRMD baseline): 0.0604 fraction
Change from GRMD Baseline (fraction) (Annexin A5 (ANXA5), Post-Treatment to GRMD baseline): -0.0309 fraction
Change from GRMD Baseline (fraction) (Apolipoprotein M (APOM), EDG-5506 treatment to GRMD baseline): 0.1027 fraction
Change from GRMD Baseline (fraction) (Apolipoprotein M (APOM), Post-Treatment to GRMD baseline): -0.1149 fraction
Change from GRMD Baseline (fraction) (Bactericidal permeability-increasing protein (BPI), EDG-5506 treatment to GRMD baseline): 0.0745 fraction
Change from GRMD Baseline (fraction) (Bactericidal permeability-increasing protein (BPI), Post-Treatment to GRMD baseline): 0.1503 fraction
Change from GRMD Baseline (fraction) (Basigin (BSG), EDG-5506 treatment to GRMD baseline): 0.1541 fraction
Change from GRMD Baseline (fraction) (Basigin (BSG), Post-Treatment to GRMD baseline): -0.07 fraction
Change from GRMD Baseline (fraction) (Brain-derived neurotrophic factor (BDNF), EDG-5506 treatment to GRMD baseline): 0.0859 fraction
Change from GRMD Baseline (fraction) (Brain-derived neurotrophic factor (BDNF), Post-Treatment to GRMD baseline): -0.07 fraction
Change from GRMD Baseline (fraction) (Calcium/calmodulin-dependent 3',5'-cyclic nucleotide phosphodiesterase 1A (PDE1A), EDG-5506 treatment to GRMD baseline): 0.0363 fraction
Change from GRMD Baseline (fraction) (Calcium/calmodulin-dependent 3',5'-cyclic nucleotide phosphodiesterase 1A (PDE1A), Post-Treatment to GRMD baseline): -0.0044 fraction
Change from GRMD Baseline (fraction) (Carbohydrate sulfotransferase 15 (CHST15), EDG-5506 treatment to GRMD baseline): 0.0872 fraction
Change from GRMD Baseline (fraction) (Carbohydrate sulfotransferase 15 (CHST15), Post-Treatment to GRMD baseline): -0.1346 fraction
Change from GRMD Baseline (fraction) (Carbonic anhydrase 7 (CA7), EDG-5506 treatment to GRMD baseline): 0.1779 fraction
Change from GRMD Baseline (fraction) (Carbonic anhydrase 7 (CA7), Post-Treatment to GRMD baseline): 0.1249 fraction
Change from GRMD Baseline (fraction) (Cathepsin G (CTSG), EDG-5506 treatment to GRMD baseline): 0.0969 fraction
Change from GRMD Baseline (fraction) (Cathepsin G (CTSG), Post-Treatment to GRMD baseline): 0.1704 fraction
Change from GRMD Baseline (fraction) (Cathepsin H (CTSH), EDG-5506 treatment to GRMD baseline): 0.1349 fraction
Change from GRMD Baseline (fraction) (Cathepsin H (CTSH), Post-Treatment to GRMD baseline): -0.0348 fraction
Change from GRMD Baseline (fraction) (Ciliary neurotrophic factor (CNTF), EDG-5506 treatment to GRMD baseline): 0.2366 fraction
Change from GRMD Baseline (fraction) (Ciliary neurotrophic factor (CNTF), Post-Treatment to GRMD baseline): 0.313 fraction
Change from GRMD Baseline (fraction) (Collectin-11 (COLEC11), EDG-5506 treatment to GRMD baseline): -0.1017 fraction
Change from GRMD Baseline (fraction) (Collectin-11 (COLEC11), Post-Treatment to GRMD baseline): -0.0756 fraction
Change from GRMD Baseline (fraction) (Complement component C7 (C7), EDG-5506 treatment to GRMD baseline): 0.118 fraction
Change from GRMD Baseline (fraction) (Complement component C7 (C7), Post-Treatment to GRMD baseline): 0.1005 fraction
Change from GRMD Baseline (fraction) (Contactin-2 (CNTN2), EDG-5506 treatment to GRMD baseline): 0.1036 fraction
Change from GRMD Baseline (fraction) (Contactin-2 (CNTN2), Post-Treatment to GRMD baseline): -0.068 fraction
Change from GRMD Baseline (fraction) (Cytotoxic T-lymphocyte protein 4 (CTLA4), EDG-5506 treatment to GRMD baseline): 0.1272 fraction
Change from GRMD Baseline (fraction) (Cytotoxic T-lymphocyte protein 4 (CTLA4), Post-Treatment to GRMD baseline): 0.041 fraction
Change from GRMD Baseline (fraction) (Delta-like protein 4 (DLL4), EDG-5506 treatment to GRMD baseline): 0.0825 fraction
Change from GRMD Baseline (fraction) (Delta-like protein 4 (DLL4), Post-Treatment to GRMD baseline): -0.0212 fraction
Change from GRMD Baseline (fraction) (Dickkopf-related protein 3 (DKK3), EDG-5506 treatment to GRMD baseline): 0.0897 fraction
Change from GRMD Baseline (fraction) (Dickkopf-related protein 3 (DKK3), Post-Treatment to GRMD baseline): -0.0042 fraction
3-hydroxyisobutyrate dehydrogenase, mitochondrial (HIBADH): Change from GRMD Baseline (fraction) [1]: 0.1537 fraction
14-3-3 protein beta/alpha (YWHAB): Change from GRMD Baseline (fraction) [1]: -0.0886 fraction
14-3-3 protein sigma (SFN): Change from GRMD Baseline (fraction) [1]: 0.3172 fraction
72 kDa type IV collagenase (MMP2): Change from GRMD Baseline (fraction) [1]: 0.1734 fraction
Adrenomedullin (ADM): Change from GRMD Baseline (fraction) [1]: -0.0855 fraction
Aggrecan core protein (ACAN): Change from GRMD Baseline (fraction) [1]: 0.167 fraction
Alpha-synuclein (SNCA): Change from GRMD Baseline (fraction) [1]: 0.0584 fraction
Apolipoprotein B (APOB): Change from GRMD Baseline (fraction) [1]: 0.074 fraction
Appetite-regulating hormone (GHRL): Change from GRMD Baseline (fraction) [1]: 0.1979 fraction
Atrial natriuretic factor (NPPA): Change from GRMD Baseline (fraction) [1]: 0.1398 fraction
BDNF/NT-3 growth factors receptor (NTRK2): Change from GRMD Baseline (fraction) [1]: 0.1937 fraction
BH3-interacting domain death agonist (BID): Change from GRMD Baseline (fraction) [1]: 0.1126 fraction
Bcl-2-related protein A1 (BCL2A1): Change from GRMD Baseline (fraction) [1]: -0.0911 fraction
Bone morphogenetic protein 6 (BMP6): Change from GRMD Baseline (fraction) [1]: 0.2555 fraction
Bone morphogenetic protein 10 (BMP10): Change from GRMD Baseline (fraction) [1]: 0.1398 fraction
C-X-C motif chemokine 10 (CXCL10): Change from GRMD Baseline (fraction) [1]: 0.1922 fraction
C-type mannose receptor 2 (MRC2): Change from GRMD Baseline (fraction) [1]: 0.1728 fraction
CD166 antigen (ALCAM): Change from GRMD Baseline (fraction) [1]: 0.2333 fraction
Cadherin-5 (CDH5): Change from GRMD Baseline (fraction) [1]: 0.1109 fraction
Carboxypeptidase E (CPE): Change from GRMD Baseline (fraction) [1]: 0.0406 fraction
Cell adhesion molecule 1 (CADM1): Change from GRMD Baseline (fraction) [1]: 0.0424 fraction
Chromogranin-A (CHGA): Change from GRMD Baseline (fraction) [1]: 0.2322 fraction
Ciliary neurotrophic factor receptor subunit alpha (CNTFR): Change from GRMD Baseline (fraction) [1]: 0.1045 fraction
Ck-beta-8-1 (CCL23): Change from GRMD Baseline (fraction) [1]: 0.0708 fraction
Coiled-coil domain-containing protein 80 (CCDC80): Change from GRMD Baseline (fraction) [1]: -0.0672 fraction
Collagen alpha-1(VIII) chain (COL8A1): Change from GRMD Baseline (fraction) [1]: 0.2128 fraction
Collagenase 3 (MMP13): Change from GRMD Baseline (fraction) [1]: -0.0939 fraction
Collectin-12 (COLEC12): Change from GRMD Baseline (fraction) [1]: 0.2006 fraction
Complement component C1q receptor (CD93): Change from GRMD Baseline (fraction) [1]: 0.1785 fraction
Complement decay-accelerating factor (CD55): Change from GRMD Baseline (fraction) [1]: -0.0957 fraction
Contactin-1 (CNTN1): Change from GRMD Baseline (fraction) [1]: 0.0923 fraction
Corticotropin (POMC): Change from GRMD Baseline (fraction) [1]: -0.096 fraction
Cytotoxic and regulatory T-cell molecule (CRTAM): Change from GRMD Baseline (fraction) [1]: -0.015 fraction
Dickkopf-related protein 1 (DKK1): Change from GRMD Baseline (fraction) [1]: 0.2889 fraction
Dickkopf-related protein 4 (DKK4): Change from GRMD Baseline (fraction) [1]: 0.1406 fraction
E3 ubiquitin-protein ligase ZNRF3 (ZNRF3): Change from GRMD Baseline (fraction) [1]: -0.0555 fraction
Ephrin type-A receptor 5 (EPHA5): Change from GRMD Baseline (fraction) [1]: 0.0759 fraction
Ephrin-A2 (EFNA2): Change from GRMD Baseline (fraction) [1]: 0.0899 fraction
Ephrin-A5 (EFNA5): Change from GRMD Baseline (fraction) [1]: 0.0839 fraction
Epidermal growth factor receptor (EGFR): Change from GRMD Baseline (fraction) [1]: 0.2223 fraction
Estradiol 17-beta-dehydrogenase 1 (HSD17B1): Change from GRMD Baseline (fraction) [1]: 0.1223 fraction
Fatty acid-binding protein, epidermal (FABP5): Change from GRMD Baseline (fraction) [1]: 0.0517 fraction
Fc receptor-like protein 3 (FCRL3): Change from GRMD Baseline (fraction) [1]: -0.0177 fraction
GDNF family receptor alpha-2 (GFRA2): Change from GRMD Baseline (fraction) [1]: 0.1299 fraction
Galectin-8 (LGALS8): Change from GRMD Baseline (fraction) [1]: 0.0779 fraction
Galectin-9 (LGALS9): Change from GRMD Baseline (fraction) [1]: -0.04 fraction
Gamma-enolase (ENO2): Change from GRMD Baseline (fraction) [1]: 0.1938 fraction
Gastrin-releasing peptide (GRP): Change from GRMD Baseline (fraction) [1]: 0.0715 fraction
Glutamate carboxypeptidase 2 (FOLH1): Change from GRMD Baseline (fraction) [1]: 0.301 fraction
Glypican-2 (GPC2): Change from GRMD Baseline (fraction) [1]: 0.2818 fraction
Gremlin-1 (GREM1): Change from GRMD Baseline (fraction) [1]: 0.117 fraction
Growth/differentiation factor 8 (MSTN): Change from GRMD Baseline (fraction) [1]: 0.0197 fraction
Growth/differentiation factor 11/8 (GDF11 MSTN): Change from GRMD Baseline (fraction) [1]: 0.039 fraction
Hemoglobin (HBA1 HBB): Change from GRMD Baseline (fraction) [1]: -0.194 fraction
Heparin cofactor 2 (SERPIND1): Change from GRMD Baseline (fraction) [1]: 0.095 fraction
Hepatitis A virus cellular receptor 2 (HAVCR2): Change from GRMD Baseline (fraction) [1]: -0.0356 fraction
High affinity immunoglobulin gamma Fc receptor I (FCGR1A): Change from GRMD Baseline (fraction) [1]: 0.1553 fraction
Histone-lysine N-methyltransferase EHMT2 (EHMT2): Change from GRMD Baseline (fraction) [1]: 0.3323 fraction
Hyaluronan and proteoglycan link protein 1 (HAPLN1): Change from GRMD Baseline (fraction) [1]: 0.0551 fraction
Insulin-like growth factor 1 receptor (IGF1R): Change from GRMD Baseline (fraction) [1]: 0.1691 fraction
Integrin alpha-V: beta-5 complex (ITGAV ITGB5): Change from GRMD Baseline (fraction) [1]: -0.051 fraction
Interleukin-4 receptor subunit alpha (IL4R): Change from GRMD Baseline (fraction) [1]: 0.1823 fraction
Interleukin-18-binding protein (IL18BP): Change from GRMD Baseline (fraction) [1]: 0.0143 fraction
Interstitial collagenase (MMP1): Change from GRMD Baseline (fraction) [1]: 0.0861 fraction
Leucine-rich repeat transmembrane neuronal protein 3 (LRRTM3): Change from GRMD Baseline (fraction) [1]: 0.2512 fraction
Limbic system-associated membrane protein (LSAMP): Change from GRMD Baseline (fraction) [1]: 0.1355 fraction
Lymphocyte activation gene 3 protein (LAG3): Change from GRMD Baseline (fraction) [1]: 0.164 fraction
Lysosome membrane protein 2 (SCARB2): Change from GRMD Baseline (fraction) [1]: 0.1336 fraction
MHC class I polypeptide-related sequence B (MICB): Change from GRMD Baseline (fraction) [1]: 0.2058 fraction
Matrilin-2 (MATN2): Change from GRMD Baseline (fraction) [1]: -0.0022 fraction
Melanoma-derived growth regulatory protein (MIA): Change from GRMD Baseline (fraction) [1]: 0.1875 fraction
Moesin (MSN): Change from GRMD Baseline (fraction) [1]: -0.082 fraction
Muellerian-inhibiting factor (AMH): Change from GRMD Baseline (fraction) [1]: 0.0498 fraction
NKG2D ligand 1 (ULBP1): Change from GRMD Baseline (fraction) [1]: -0.0534 fraction
NT-3 growth factor receptor (NTRK3): Change from GRMD Baseline (fraction) [1]: 0.1168 fraction
Netrin receptor UNC5C (UNC5C): Change from GRMD Baseline (fraction) [1]: 0.03 fraction
Neurogenic locus notch homolog protein 2 (NOTCH2): Change from GRMD Baseline (fraction) [1]: 0.2188 fraction
Neurogenic locus notch homolog protein 3 (NOTCH3): Change from GRMD Baseline (fraction) [1]: 0.0936 fraction
Nuclear receptor subfamily 1 group D member 1 (NR1D1): Change from GRMD Baseline (fraction) [1]: 0.048 fraction
Phospholipase A2 (PLA2G1B): Change from GRMD Baseline (fraction) [1]: 0.0754 fraction
Placenta growth factor (PGF): Change from GRMD Baseline (fraction) [1]: -0.066 fraction
Plasminogen (PLG): Change from GRMD Baseline (fraction) [1]: 0.2052 fraction
PolyUbiquitin K63-linked (UBC): Change from GRMD Baseline (fraction) [1]: 0.2167 fraction

Source: publication PMC10178848, “Modulating fast skeletal muscle contraction protects skeletal muscle in animal models of Duchenne muscular dystrophy” (The Journal of Clinical Investigation, 2023)
